According to ChEMBL document CHEMBL4270590, “Azulene-based compounds for targeting orexin receptors” (Eur J Med Chem, 2018):
Activity calls are given as the source filed them. The rule behind the calls is not given here.

Experiments:
[1] = biological target: T1, Orexin/Hypocretin receptor type 1 (Homo sapiens) (UniProt O43613); assay: Displacement of [125I]-orexin-A from human OX1 receptor expressed in CHOK1 cells at 10 uM incubated for 10 mins and measured after 90 mins by liquid scintillation counting method relative to control; type: cell-based
T1 sequence (whole entry): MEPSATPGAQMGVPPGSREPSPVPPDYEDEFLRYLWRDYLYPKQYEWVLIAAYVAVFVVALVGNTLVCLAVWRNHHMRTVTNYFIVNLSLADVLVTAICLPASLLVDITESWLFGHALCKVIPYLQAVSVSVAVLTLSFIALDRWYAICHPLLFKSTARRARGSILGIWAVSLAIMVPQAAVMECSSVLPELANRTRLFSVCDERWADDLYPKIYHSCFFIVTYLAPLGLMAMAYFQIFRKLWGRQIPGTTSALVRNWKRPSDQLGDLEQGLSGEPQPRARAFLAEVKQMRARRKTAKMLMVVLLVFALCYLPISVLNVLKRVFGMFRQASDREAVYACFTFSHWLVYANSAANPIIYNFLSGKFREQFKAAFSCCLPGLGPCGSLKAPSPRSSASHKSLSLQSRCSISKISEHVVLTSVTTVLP

Orexin receptor type 2 = biological target: T2, Orexin receptor type 2 (Homo sapiens, UniProt O43614); assay: Antagonist activity at human OX2 receptor expressed in CHOK1 cells assessed as inhibition of orexin-A-induced calcium accumulation preincubated for 30 mins followed by orexin-A addition measured for 150 secs by calcium-4 dye based FLIPR assay; type: functional, cell-based; conditions: read-out: Ki(app)
T2 sequence (O43614 whole entry): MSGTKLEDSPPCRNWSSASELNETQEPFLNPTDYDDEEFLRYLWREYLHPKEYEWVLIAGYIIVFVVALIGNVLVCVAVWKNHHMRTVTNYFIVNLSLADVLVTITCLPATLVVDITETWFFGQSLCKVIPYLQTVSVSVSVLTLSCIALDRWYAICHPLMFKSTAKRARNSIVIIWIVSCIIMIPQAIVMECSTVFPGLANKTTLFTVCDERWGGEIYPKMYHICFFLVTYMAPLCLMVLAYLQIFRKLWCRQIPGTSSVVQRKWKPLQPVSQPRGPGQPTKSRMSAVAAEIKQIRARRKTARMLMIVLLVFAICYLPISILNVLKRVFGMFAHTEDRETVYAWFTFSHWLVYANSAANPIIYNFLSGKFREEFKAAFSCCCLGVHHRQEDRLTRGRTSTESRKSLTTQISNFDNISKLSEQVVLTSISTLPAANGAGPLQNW

[2] = biological target: T3, Orexin/Hypocretin receptor type 1 (Homo sapiens, UniProt O43613); assay: Antagonist activity at human OX1 receptor expressed in CHOK1 cells assessed as inhibition of orexin-A-induced calcium accumulation preincubated for 30 mins followed by orexin-A addition measured for 150 secs by calcium-4 dye based FLIPR assay; type: functional, cell-based; conditions: read-out: Ki(app)
T3 sequence (O43613 whole entry): T1 sequence (whole entry)

[3] = Colloidal aggregating behavior of the compound at 18 to 30 uM by nephelometric method; type: physicochemical
[4] = biological target: T4, Orexin receptor type 2 (Homo sapiens) (UniProt O43614); assay: Displacement of [125I]-orexin-A from human OX2 receptor expressed in CHOK1 cells at 10 uM incubated for 10 mins and measured after 90 mins by liquid scintillation counting method relative to control; type: cell-based
T4 sequence (whole entry): T2 sequence (O43614 whole entry)

[5] = biological target: T4, Orexin receptor type 2 (Homo sapiens); assay: Agonist activity at human OX2 receptor expressed in CHOK1 cells assessed as increase in calcium accumulation at 10 uM incubated for 30 mins measured for 150 secs by calcium-4 dye based FLIPR assay relative to orexin-A; type: functional, cell-based
[6] = biological target: T1, Orexin/Hypocretin receptor type 1 (Homo sapiens); assay: Agonist activity at human OX1 receptor expressed in CHOK1 cells assessed as increase in calcium accumulation at 10 uM incubated for 30 mins measured for 150 secs by calcium-4 dye based FLIPR assay relative to orexin-A; type: functional, cell-based
[7] = biological target: T4, Orexin receptor type 2 (Homo sapiens); assay: Allosteric agonist activity at human OX2 receptor expressed in CHOK1 cells assessed as potentiation of orexin-A induced calcium accumulation at 10 uM preincubated for 30 mins followed by orexin-A addition and measured for 150 secs by calcium-4 dye based FLIPR assay relative to control; type: functional, cell-based
[8] = biological target: T1, Orexin/Hypocretin receptor type 1 (Homo sapiens); assay: Allosteric agonist activity at human OX1 receptor expressed in CHOK1 cells assessed as potentiation of orexin-A induced calcium accumulation at 10 uM preincubated for 30 mins followed by orexin-A addition and measured for 150 secs by calcium-4 dye based FLIPR assay relative to control; type: functional, cell-based
[9] = biological target: T1, Orexin/Hypocretin receptor type 1 (Homo sapiens); assay: Allosteric agonist activity at human OX1 receptor expressed in CHOK1 cells assessed as potentiation of orexin-A induced calcium accumulation preincubated for 30 mins followed by orexin-A addition and measured for 150 secs by calcium-4 dye based FLIPR assay; type: functional, cell-based
[10] = Solubility of the compound in water; type: physicochemical; conditions: buffer
[11] = biological target: T1, Orexin/Hypocretin receptor type 1 (Homo sapiens); assay: Allosteric agonist activity at human OX1 receptor expressed in CHOK1 cells assessed as potentiation of orexin-A induced calcium accumulation at 5 uM preincubated for 30 mins followed by orexin-A addition and measured for 150 secs by calcium-4 dye based FLIPR assay relative to control; type: functional, cell-based
CHO-K1 = assay: Effect on ATP-induced intracellular calcium accumulation in CHOK1 cells expressing human OXR at 10 uM incubated for 30 mins and measured for 150 secs by calcium-4 dye based FLIPR assay; type: functional, cell-based; conditions: Cricetulus griseus
[12] = biological target: T4, Orexin receptor type 2 (Homo sapiens); assay: Allosteric agonist activity at human OX2 receptor expressed in CHOK1 cells assessed as potentiation of orexin-A induced calcium accumulation preincubated for 30 mins followed by orexin-A addition and measured for 150 secs by calcium-4 dye based FLIPR assay; type: functional, cell-based

Row | fold change (FC) [7] | fold change (FC) [8] | Activity [9] | solubility [10] | fold change (FC) [11] | Activity [12] | Structure (SMILES) | inhibition [1] [%] | Ki (Orexin receptor type 2) [µM] | Ki [2] [µM] | Activity [3] | inhibition [4] [%] | Emax [5] [%] | Emax [6] [%] | Activity (CHO-K1)
1 |  |  |  |  |  |  | COC(=O)c1cccc2c(C=O)cc(I)c-2c1 | 40.7 | 3.6 | 4.8 | Active | 47.2 | 0.68 | 1.59 | 
2 | 1.34 | 2.03 | Dose-dependent effect | Insoluble | 1.4 | Dose-dependent effect | COC(=O)Cc1ccc2ccc(C(=O)c3ccc(C(F)(F)F)cc3)c-2cc1 |  |  |  |  | 1 | 0.37 | 1.28 | inactive
